# Experimental data from US10138229B2, “Heteroaromatic compounds as BTK inhibitors” (Boehringer Ingelheim International GmbH, priority 2012, dated 2018).
# Molecular target: full-length human His-tagged BTK (Homo sapiens (Human), UniProt Q06187)
# Experiment: BTK Assay (HTRF, Cisbio KinEASE-TK)
# Assay type: biochemical
# Conditions: 6 nM BTK, 30 uM ATP, 15 min preincubation
# Protocol: An HTRF assay (Cisbio KinEASE-TK cat #62TKOPEC) was performed to quantitate the ability of test compounds to inhibit BTK mediated phosphorylation of substrate. Assays were assembled in 384 well plates where 6 nM of full-length human His-tagged BTK (Life Technologies cat # PV3587) and test compound at varying concentrations were preincubated for 15 minutes at 28° C. Then, 1 uM of TK substrate-biotin and 30 uM ATP were added and incubated for an additional 30 minutes at 28° C.
# Chain of full-length human His-tagged BTK (Q06187 whole entry): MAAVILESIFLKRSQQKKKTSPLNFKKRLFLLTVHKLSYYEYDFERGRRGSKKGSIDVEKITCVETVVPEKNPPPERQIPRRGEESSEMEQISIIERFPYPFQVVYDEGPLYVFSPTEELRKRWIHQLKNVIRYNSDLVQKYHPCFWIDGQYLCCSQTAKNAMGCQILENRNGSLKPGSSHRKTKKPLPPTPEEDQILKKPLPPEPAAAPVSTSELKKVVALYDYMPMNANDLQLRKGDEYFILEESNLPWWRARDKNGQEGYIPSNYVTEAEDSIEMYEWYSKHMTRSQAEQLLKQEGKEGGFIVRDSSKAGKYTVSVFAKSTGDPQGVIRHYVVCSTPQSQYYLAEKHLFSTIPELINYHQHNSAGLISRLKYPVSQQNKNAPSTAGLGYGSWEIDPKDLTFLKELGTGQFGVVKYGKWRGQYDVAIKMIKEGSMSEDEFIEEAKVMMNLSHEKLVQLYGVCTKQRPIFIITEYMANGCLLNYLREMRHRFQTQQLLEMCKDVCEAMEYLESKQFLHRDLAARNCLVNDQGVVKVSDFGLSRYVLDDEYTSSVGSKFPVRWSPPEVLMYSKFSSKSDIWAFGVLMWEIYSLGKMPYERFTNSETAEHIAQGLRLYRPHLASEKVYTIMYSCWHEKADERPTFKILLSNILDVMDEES
row,SMILES,IC50 [nM]
1,"C=CC(=O)N1CCC2(CC(n3nc(-c4ccc(OCCC)cc4)c(C(N)=O)c3N)C2)C1 (single isomer, unassigned) [Example 125]",7.5
2,C=CC(=O)N1CCC[C@@H](n2cc(C(N)=O)c(-c3ccc(-c4ccccc4)cc3)n2)C1 [Example 1],2600
3,C=CC(=O)N1CCC[C@@H](n2cc(C(N)=O)c(-c3ccc(OCc4ccccc4)cc3)n2)C1 [Example 2],33
4,C=CC(=O)N1CCC[C@@H](n2cc(C(N)=O)c(-c3cccc(OCc4ccccc4)c3)n2)C1 [Example 3],810
5,C=CC(=O)N1CCC[C@@H](n2cc(C(N)=O)c(-c3ccc(Cc4ccccc4)cc3)n2)C1 [Example 9],14
6,C=CC(=O)N1CCC[C@@H](n2cc(C(N)=O)c(-c3cccc(NS(=O)(=O)c4ccc(C)cc4)c3)n2)C1 [Example 11],5500
7,C=CC(=O)N1CCC[C@@H](n2cc(C(N)=O)c(-c3ccc(-n4nc(C)cc4C)cc3)n2)C1 [Example 14],7800
8,C=CC(=O)N1CCC[C@@H](n2cc(C(N)=O)c(-c3ccc4occc4c3)n2)C1 [Example 16],580
9,C=CC(=O)N1CCC[C@@H](n2cc(C(N)=O)c(-c3cccc(NS(C)(=O)=O)c3)n2)C1 [Example 17],4800
10,C=CC(=O)N1CCC[C@@H](n2cc(C(N)=O)c(-c3ccc(Oc4ccc(Cl)c(Cl)c4)c(OC)c3)n2)C1 [Example 20],30
11,C=CC(=O)N1CCC[C@@H](n2cc(C(N)=O)c(-c3ccc(OCc4ccccn4)c(Cl)c3)n2)C1 [Example 21],98
12,C=CC(=O)N1CCC[C@@H](n2cc(C(N)=O)c(-c3ccc(Oc4ccccc4)c(OC)c3)n2)C1 [Example 22],7.6
13,C=CC(=O)N1CCC[C@@H](n2cc(C(N)=O)c(-c3ccc(Oc4ccccc4)c(F)c3)n2)C1 [Example 23],10
14,C=CC(=O)N1CCC[C@@H](n2cc(C(N)=O)c(-c3ccc(Oc4ccccc4)c(Cl)c3)n2)C1 [Example 24],9.4
15,C=CC(=O)N1CCC[C@@H](n2cc(C(N)=O)c(-c3ccc(NC(=O)c4cc5ccccc5n4C)c(OC)c3)n2)C1 [Example 25],5.1
16,C=CC(=O)N1CCC[C@@H](n2cc(C(N)=O)c(-c3ccc(NC(=O)c4ccc(C(F)(F)F)cc4F)c(OC)c3)n2)C1 [Example 26],22
17,C=CC(=O)N1CCC[C@@H](n2cc(C(N)=O)c(-c3ccc(Nc4nc5ccccc5o4)cc3)n2)C1 [Example 27],300
18,C=CC(=O)N1CCC[C@@H](n2cc(C(N)=O)c(-c3ccc(Oc4ccccc4)cc3)n2)C1 [Example 29],3.2
19,CN(C)C/C=C/C(=O)N1CCC[C@@H](n2cc(C(N)=O)c(-c3ccc(Oc4ccccc4)cc3)n2)C1 [Example 30],57
20,CC#CC(=O)N1CCC[C@@H](n2cc(C(N)=O)c(-c3ccc(Oc4ccccc4)cc3)n2)C1 [Example 31],80
21,CC#CC(=O)N1CCC[C@H]1Cn1cc(C(N)=O)c(-c2ccc(Oc3ccccc3)cc2)n1 [Example 32],150
22,C=CC(=O)N1CCC[C@H]1Cn1cc(C(N)=O)c(-c2ccc(Oc3ccccc3)cc2)n1 [Example 33],9.7
23,C=CC(=O)NCCc1nc(-c2ccc(Oc3ccccc3)cc2)c(C(N)=O)s1 [Example 34],21
24,C=CC(=O)N1CC2(CC(n3nc(-c4ccc(Oc5ccccc5)cc4)c(C(N)=O)c3N)C2)C1 [Example 35],0.77
25,CN(C)C/C=C/C(=O)N1CCC[C@H]1Cn1cc(C(N)=O)c(-c2ccc(Oc3ccccc3)cc2)n1 [Example 36],230

row,SMILES,IC50 [nM]
1,CN(C)C/C=C/C(=O)N1CC[C@]2(C1)C[C@H](n1cc(C(N)=O)c(-c3ccc(Oc4ccccc4)cc3)n1)C2 [Example 37],38
2,CC#CC(=O)N1CC[C@]2(C1)C[C@H](n1cc(C(N)=O)c(-c3ccc(Oc4ccccc4)cc3)n1)C2 [Example 38],13
3,C=CC(=O)NCCn1cc(C(N)=O)c(-c2ccc(Oc3ccccc3)cc2)n1 [Example 39],290
4,C=CC(=O)N1CCC(Cn2cc(C(N)=O)c(-c3ccc(Oc4ccccc4)cc3)n2)C1 (stereo not shown) [Example 42],64
5,CC#CC(=O)N1CCC(Cn2cc(C(N)=O)c(-c3ccc(Oc4ccccc4)cc3)n2)C1 (stereo not shown) [Example 43],51
6,C=CC(=O)NCCn1nc(-c2ccc(Oc3ccccc3)cc2)c(C(N)=O)c1N [Example 44],1
7,C=CC(=O)N1CCCC(Cn2cc(C(N)=O)c(-c3ccc(Oc4ccccc4)cc3)n2)C1 (stereo not shown) [Example 45],10
8,C=CC(=O)N1CCC(Cn2cc(C(N)=O)c(-c3ccc(Oc4ccccc4)cc3)n2)CC1 [Example 47],10
9,CC#CC(=O)N1CCCC(Cn2cc(C(N)=O)c(-c3ccc(Oc4ccccc4)cc3)n2)C1 (stereo not shown) [Example 48],90
10,CC#CC(=O)N1CCC(Cn2cc(C(N)=O)c(-c3ccc(Oc4ccccc4)cc3)n2)CC1 [Example 49],180
11,C=CC(=O)N1CCC[C@H]1Cc1nc(-c2ccc(Oc3ccccc3)cc2)c(C(N)=O)s1 [Example 50],3
12,C=CC(=O)N1CCC[C@@H](c2nc(-c3ccc(Oc4ccccc4)cc3)c(C(N)=O)s2)C1 [Example 51],1.7
13,CC#CC(=O)N1CCC[C@@H](c2nc(-c3ccc(Oc4ccccc4)cc3)c(C(N)=O)s2)C1 [Example 52],18
14,CC#CC(=O)N1CCC[C@H]1Cc1nc(-c2ccc(Oc3ccccc3)cc2)c(C(N)=O)s1 [Example 53],14
15,C=CC(=O)N1CCC(n2cc(C(N)=O)c(-c3ccc(Oc4ccccc4)cc3)n2)CC1 [Example 55],6.6
16,CC#CC(=O)N1CCC(n2cc(C(N)=O)c(-c3ccc(Oc4ccccc4)cc3)n2)CC1 [Example 56],15
17,C=CC(=O)N1CC2(CC(c3nc(-c4ccc(Oc5ccccc5)cc4)c(C(N)=O)s3)C2)C1 [Example 57],3.2
18,CC#CC(=O)N1CC2(CC(c3nc(-c4ccc(Oc5ccccc5)cc4)c(C(N)=O)s3)C2)C1 [Example 58],1.1
19,CC#CC(=O)N1CCC[C@@H](c2nc(-c3ccc(Oc4ccccc4)cc3)c(C(N)=O)[nH]2)C1 [Example 59],8.9
20,C=CC(=O)N1CCC[C@@H](n2cc(C(N)=O)c(-c3ccc(NC(=O)Nc4cccc(C)c4)cc3)n2)C1 [Example 60],41
21,C=CC(=O)N1CCC[C@@H](n2cc(C(N)=O)c(-c3ccc(NS(=O)(=O)c4cccc(Cl)c4Cl)cc3)n2)C1 [Example 61],780
22,C=CC(=O)N1CCC[C@@H](n2cc(C(N)=O)c(-c3ccc(Oc4ccc(F)cc4)cc3)n2)C1 [Example 62],93
23,C=CC(=O)N1CCC[C@@H](n2cc(C(N)=O)c(-c3ccc(Oc4ccc(C(F)(F)F)cc4)cc3)n2)C1 [Example 63],660
24,C=CC(=O)N1CCC[C@@H](n2cc(C(N)=O)c(-c3ccc(Oc4ccc(S(C)(=O)=O)cc4)cc3)n2)C1 [Example 64],6500
25,C=CC(=O)N1CCC[C@@H](n2cc(C(N)=O)c(-c3ccc(Oc4cccc(S(C)(=O)=O)c4)cc3)n2)C1 [Example 65],330

row,SMILES,IC50 [nM]
1,C=CC(=O)N1CCC[C@@H](n2cc(C(N)=O)c(-c3ccc(Oc4ccc(Cl)c(F)c4)cc3)n2)C1 [Example 66],43
2,C=CC(=O)N1CCC[C@@H](n2cc(C(N)=O)c(-c3ccc(Oc4ccc(OC)cc4)cc3)n2)C1 [Example 67],38
3,C=CC(=O)N1CCC[C@@H](n2cc(C(N)=O)c(-c3ccc(Oc4cccc(Cl)c4)cc3)n2)C1 [Example 68],41
4,C=CC(=O)N1CCC[C@@H](n2cc(C(N)=O)c(-c3ccc(Oc4ccc(Cl)c(Cl)c4)cc3)n2)C1 [Example 69],43
5,C=CC(=O)N1CCC[C@@H](n2cc(C(N)=O)c(-c3ccc(Oc4ccc(Cl)cc4)cc3)n2)C1 [Example 70],45
6,C=CC(=O)N1CCC[C@@H](n2cc(C(N)=O)c(-c3ccc(Oc4ccc(C)cc4)cc3)n2)C1 [Example 71],14
7,C=CC(=O)N1CCC[C@@H](n2cc(C(N)=O)c(-c3ccc(Oc4cccc(C)c4)cc3)n2)C1 [Example 72],4
8,C=CC(=O)N1CCC[C@@H](n2cc(C(N)=O)c(-c3ccc(Oc4cccc(F)c4)cc3)n2)C1 [Example 73],9.3
9,C=CC(=O)N1CCC[C@@H](n2cc(C(N)=O)c(-c3ccc(Oc4ccc(C#N)cc4)cc3)n2)C1 [Example 75],6600
10,C=CC(=O)N1CCC[C@@H](n2cc(C(N)=O)c(-c3ccc(Oc4cccc(C#N)c4)cc3)n2)C1 [Example 76],61
11,NC(=O)c1c(-c2ccc(Oc3ccccc3)cc2)nn(C2CC3(C2)CN(C(=O)/C=C/CN2CCOCC2)C3)c1N [Example 77],1.9
12,C=CC(=O)N1CC[C@]2(C1)C[C@@H](c1nc(-c3ccc(Oc4ccccc4)cc3)c(C(N)=O)s1)C2 [Example 79],6.4
13,C=CC(=O)N1CC[C@]2(C1)C[C@H](n1nc(-c3ccc(Oc4ccccc4)cc3)c(C(N)=O)c1N)C2 [Example 80],0.93
14,C=CC(=O)N1CCC2(CC1)CC(n1nc(-c3ccc(Oc4ccccc4)cc3)c(C(N)=O)c1N)C2 [Example 82],2
15,CC#CC(=O)N1CCC2(CC1)CC(n1nc(-c3ccc(Oc4ccccc4)cc3)c(C(N)=O)c1N)C2 [Example 83],2.1
16,C=CC(=O)N1CCC2(CC1)CC(c1nc(-c3ccc(Oc4ccccc4)cc3)c(C(N)=O)s1)C2 [Example 84],52
17,CC#CC(=O)N1CCC2(CC1)CC(c1nc(-c3ccc(Oc4ccccc4)cc3)c(C(N)=O)s1)C2 [Example 85],300
18,C=CC(=O)N1CCC2(CC1)CC(n1cc(C(N)=O)c(-c3ccc(Oc4ccccc4)cc3)n1)C2 [Example 86],95
19,CC#CC(=O)N1CCC2(CC1)CC(c1nc(-c3ccc(Oc4ccccc4)cc3)c(C(N)=O)[nH]1)C2 [Example 87],4.3
20,C=CC(=O)N1CC[C@]2(C1)C[C@@H](n1cc(C(N)=O)c(-c3ccc(Oc4ccccc4)cc3)n1)C2 [Example 88],21
21,CC#CC(=O)N1CC[C@]2(C1)C[C@@H](n1cc(C(N)=O)c(-c3ccc(Oc4ccccc4)cc3)n1)C2 [Example 89],34
22,CNC(=O)/C=C/CN1CCC[C@@H](n2cc(C(N)=O)c(-c3ccc(Oc4ccccc4)cc3)n2)C1 [Example 90],90
23,CC#CC(=O)N1CC[C@]2(C1)C[C@H](n1nc(-c3ccc(Oc4ccccc4)cc3)c(C(N)=O)c1N)C2 [Example 91],0.79
